Measurements as given in patent US12686690B2, “Macrocyclic urea orexin receptor agonists” (Merck Sharp & Dohme LLC, priority 2020, dated 2026).

Target: T1, hOX2R (Homo sapiens, UniProt O43614)
T1 construct: expressed in transfected cells; host or cells: CHO cells (G418 selection)
T1 sequence (O43614 1-444): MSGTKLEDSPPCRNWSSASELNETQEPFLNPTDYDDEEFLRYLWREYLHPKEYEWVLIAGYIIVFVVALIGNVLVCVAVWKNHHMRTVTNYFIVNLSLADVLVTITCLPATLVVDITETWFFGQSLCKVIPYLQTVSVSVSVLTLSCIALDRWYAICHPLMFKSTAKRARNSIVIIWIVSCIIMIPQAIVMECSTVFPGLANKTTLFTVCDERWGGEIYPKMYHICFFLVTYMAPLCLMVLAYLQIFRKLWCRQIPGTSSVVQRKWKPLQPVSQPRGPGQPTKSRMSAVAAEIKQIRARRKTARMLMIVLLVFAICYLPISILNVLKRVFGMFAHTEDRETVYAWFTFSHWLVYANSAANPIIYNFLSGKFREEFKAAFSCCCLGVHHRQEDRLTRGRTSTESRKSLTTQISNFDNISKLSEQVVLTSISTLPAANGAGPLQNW
Test: hOX2R IPone assay (orexin receptor agonism)
Type: cell-based
Conditions: IPone readout; for hOX2R_Ipone max %act: maximal activation; for EC50: orexin receptor agonist, read-out: hOX2R_IPone EC50

Compound	hOX2R_Ipone max %act [%]	EC50 [nM]
CCN1C(=O)NCCC2CCC(C2)Oc2nc(cn3ccnc23)-c2cccc(c2)C1C [Example 1B, (10R,E)-9-ethyl-10-methyl-3-oxa-7,9-diaza-2(6,8)-imidazo[1,2-a]pyrazina-1(1,3)-benzena-4(1,3)-cyclopentanacyclodecaphan-8-one]	99.5	126
CCN1C(=O)NC(CC(O)C(F)(F)F)CCCCCOc2cn3ncnc3c(n2)-c2cc(ncc2OC)C1C [Example 131, (3R,7R,E)-4-ethyl-25-methoxy-3-methyl-7-((S)-3,3,3-trifluoro-2-hydroxypropyl)-13-oxa-4,6-diaza-1(6,8)-[1,2,4]triazolo[1,5-a]pyrazina-2(4,2)-pyridinacyclotridecaphan-5-one]	102.2	0.77
CCN1C(=O)NCCCCCCOc2nc(cn3ccnc23)-c2cccc(c2)[C@H]1C [Example 12, (12R)-13-ethyl-12-methyl-12,13,16,17,18,19, 20,21-octahydro-6,23-(azeno)-11,7-(metheno) imidazo[2,1-c][1,4,13,15]oxa-triazacyclohenicosin-14(15H)-one]	99.76	20.3
CCN1C(=O)NCCN2CCCC(C2)Oc2nc(cn3ccnc23)-c2cccc(c2)[C@H]1C (mixture of isomers) [Example 5, (7R)-8-ethyl-7-methyl-18-oxa-8,10,13,21,24,26-hexaazapentacyclo[17.6.1.1~ 2,6~.1~13,17~.0~20,24~] octacosa-1(25),2(28),3,5,19(26),20,22-heptaen-9-one (non-preferred name)]	93.82	1380
(3R,7S,E)-4-ethyl-25-methoxy-3-methyl-7-(3,3,3-trifluoropropyl)-13-oxa-10-thia-4,6-diaza-1(6,8)-[1,2,4]triazolo[1,5-a]pyrazina-2(4,2)-pyridinacyclotridecaphan-5-one [Example 134]	100.6	6.4
CCN1C(=O)NCCCCOc2nc(cn3ccnc23)-c2cc(ncc2OC)[C@H]1C [Example 178, (R,E)-4-ethyl-25-methoxy-3-methyl-11-oxa-4,6-diaza-1(6,8)-imidazo[1,2-a]pyrazina-2(4,2)-pyridinacycloun-decaphan-5-one]	88	325
CCN1C(=O)NC2CC2CCCCOc2cn3ccnc3c(n2)-c2cc(ncc2OC)C1C [Example 145, (3R,E)-4-ethyl-25-methoxy-3-methyl-12-oxa-4,6-diaza-1(6,8)-imidazo[1,2-a]pyrazina-2(4,2)-pyridina-7(1,2)-cyclopropanacyclododecaphan-5-one]	103.8	4.4
CCN1C(=O)N[C@@H](CCC(C)(F)F)CCCCCOc2nc(cn3ncnc23)-c2cc(cnc2C)[C@H]1C [Example 146, (3R,7R,E)-7-(3,3-difluorobutyl)-4-ethyl-22,3-dimethyl-13-oxa-4,6-diaza-1(6,8)-[1,2,4]triazolo[1,5-a]pyrazina-2(3,5)-pyridinacyclotridecaphan-5-one]	100.8	14.7
CCN1C(=O)NC(c2nc(C)cs2)CCCCCOc2nc(cn3ccnc23)-c2cc(ncc2OC)[C@H]1C (stereo partly drawn) [Example 218, (3R,E)-4-ethyl-2^5-methoxy-3-methyl-7-(4-methylthiazol-2-yl)-13-oxa-4,6-diaza-1(6,8)-imidazo[1,2-a]pyrazina-2(4,2)-pyridinacyclotridecaphan-5-one]	102.4	0.9
CCN1C(=O)NC(COCC(F)(F)F)CCCCCOc2nc(cn3ccnc23)-c2cc(ncc2OC)[C@H]1C (stereo partly drawn) [Example 188, (3R,E)-4-ethyl-25-methoxy-3-methyl-7-((2,2,2-trifluoroethoxy)methyl)-13-oxa-4,6-diaza-1(6,8)-imidazo [1,2-a]pyrazina-2(4,2)-pyridinacyclotridecaphan-5-one]	100.6	0.74
CCN1C(=O)NC(CC2CCCC2)CCCCCOc2nc(cn3ccnc23)-c2cc(ncc2OC)[C@H]1C (single isomer, unassigned) [Example 65A]	102.4	13.5
CCN1C(=O)N[C@@H](CC(F)(F)F)CCCCCOc2nc(cn3ccnc23)-c2ccnc(c2)[C@H]1C [Example 103, (12R,16R)-13-ethyl-12-methyl-16-(2,2,2-trifluoroethyl)-12,13,16,17,18,19,20, 21-octahydro-6,23-(azeno)-11,7-(metheno)imidazo[2,1-c][1,4,10,13,15] oxatetraazacycloheni-cosin-14(15H)-one]	100.8	13.1
CCN1C(=O)N[C@@H](CCC(F)(F)F)CCCCCOc2nc(nn3ccnc23)-c2cccc(c2)[C@H]1C [Example 87, (12R,16R)-13-ethyl-12-methyl-16-(3,3,3-trifluoropropyl)-12,13,16,17,18,19,20, 21-octahydro-6,23-(azeno)-11,7-(metheno)imidazo[2,1-c][1,4,5,13,15] oxatetraazacycloheni-cosin-14(15H)-one]	100.6	5.8
CCN1C(=O)N[C@@H](CCC(F)(F)F)CCCCCOc2nc(cn3ncnc23)-c2cc(ncc2OC)[C@H]1C [Example 82, (12R,16R)-13-ethyl-8-methoxy-12-methyl-16-(3,3,3-tri-fluoropropyl)-12,13, 16,17,18,19,20,21-octahydro-6,23-(azeno)-11,7-(metheno)[1,2,4]tria-zolo[5,1-c][1,4,10,13, 15]oxatetraazacyclo-henicosin-14(15H)-one]	99.62	2.2
CCN1C(=O)NC(CC2(C(F)(F)F)CC2)CCCCCOc2nc(cn3ccnc23)-c2cc(ncc2OC)[C@H]1C (single isomer, unassigned) [Example 66B]	101.1	0.7
CCN1C(=O)NC(CC(C)(F)F)CCCCCOc2cn3ccnc3c(n2)-c2cc(ncc2OC)C1C [Example 151, (3R,7R,E)-7-(2,2-difluoropropyl)-4-ethyl-25-methoxy-3-methyl-13-oxa-4,6-diaza-1(6,8)-imidazo[1,2-a]pyrazina-2(4,2)-pyridinacyclotridecaphan-5-one]	108.6	0.51
(3R,E)-4-ethyl-25-methoxy-3- methyl-7-(2,2,3,3- tetrafluoropropyl)-13-oxa-4,6- diaza-1(6,8)-imidazo[1,2-a] pyrazina-2(4,2)-pyridina- cyclotridecaphan-5-one [Example 187]	104.1	0.62

Continued by falling EC50, values first:

hOX2R_Ipone max %act [%]	EC50 [nM]	Compound
97.81	173	CCN1C(=O)NCC(C(F)(F)F)N(C)CCOc2nc(cn3ccnc23)-c2cccc(c2)[C@H]1C (single isomer, unassigned) [Example 25B]
100.1	38.4	CCN1C(=O)NC(C2CCOCC2)CCCCCOc2nc(cn3ccnc23)-c2cc(ncc2OC)[C@H]1C (single isomer, unassigned) [Example 68A]
100.4	21.3	CCN1C(=O)NC(CCC(F)(F)F)C(C)/C=C\COc2nc(cn3ccnc23)-c2cccc(c2)[C@H]1C (single isomer, unassigned) [Example 41B]
100.4	19.6	CCN1C(=O)NC(CCC(F)(F)F)COCCCOc2nc(cn3ccnc23)-c2cc(ncc2OC)[C@H]1C (single isomer, unassigned) [Example 21A]
99.1	16.5	CCN1C(=O)NC(CC2(C(F)F)CC2)CCCCCOc2nc(cn3ccnc23)-c2cc(ncc2OC)[C@H]1C (single isomer, unassigned) [Example 70A]
101.4	14.9	CCN1C(=O)N[C@@H](CCC(F)(F)F)CCCCCOc2nc(nn3ccnc23)-c2ccnc(c2)[C@H]1C [Example 102, (12R,16R)-13-ethyl-12-methyl-16-(3,3,3-trifluoropropyl)-12,13,16,17,18,19,20, 21-octahydro-6,23-(azeno)-11,7-(metheno)imidazo[2,1-c][1,4,5,10,13,15] oxapentaazacycloheni-cosin-14(15H)-one]
99.8	9.6	CCN1C(=O)NC(CC2CCOC2)CCCCCOc2nc(cn3ccnc23)-c2cc(ncc2OC)[C@H]1C (single isomer, unassigned) [Example 67A]
103.9	3.71	CCN1C(=O)N[C@@H](CCC(F)(F)F)COCCCOc2nc(cn3cnnc23)-c2cc(ncc2OC)[C@H]1C [Example 173, (3R,7S,E)-4-ethyl-25-methoxy-3-methyl-7-(3,3,3trifluoropropyl)-9,13-dioxa-4,6-diaza-1(6,8)-[1,2,4]triazolo[4,3-a]pyrazina-2(4,2)-pyridinacyclotridecaphan-5-one]
100.1	2.62	CCN1C(=O)N[C@@H](CCC(F)(F)F)CCOCCOc2nc(cn3ncnc23)-c2cc(ncc2OC)[C@H]1C [Example 164, (3R,7S,E)-4-ethyl-25-methoxy-3-methyl-7-(3,3,3-trifluoropropyl)-10,13-dioxa-4,6-diaza-1(6,8)-[1,2,4]triazolo[1,5-a]pyrazina-2(4,2)-pyridinacyclotridecaphan-5-one]
99.8	1.7	CCN1C(=O)NC(CCC(F)F)CCCCCOc2nc(nn3ccnc23)-c2cc(ncc2OC)[C@H]1C (stereo partly drawn) [Example 202, (3R,E)-7-(3,3-difluoropropyl)-4-ethyl-25-methoxy-3-methyl-13-oxa-4,6-diaza-1(2,4)-imidazo[2,1-f][1,2,4]triazina-2(4,2)-pyridina-cyclotridecaphan-5-one]
